Assay results published in patent US9808448B2, “Pharmaceutical compounds and use of same in cancer and tauopathies” (THE REGENTS OF THE UNIVERSITY OF MICHIGAN, priority 2013, dated 2017).

Columns and labels:
human Hsc70 (HSPA8) = target: T1, human Hsc70 (HSPA8) (Homo sapiens, UniProt P11142); assay: ELISA competitive binding assay (biotinylated MKT-077 displacement); details: competitive ELISA, biotin labeled MKT-077 1 μM
T1 construct: made in house
Procedure: Binding of MKT-077 analogs to immobilized Hsp70 was evaluated using a competitive ELISA. In this established assay, a biotinylated version of MKT-077 is bound to immobilized human Hsc70 (HSPA8) and potential competitors are tested for their ability to block the interaction.
A sample of Hsc70 (50 μL; 0.06 mg/mL) was immobilized in clear flat-bottom 96-well plate in MES buffer (50 mM 2-(N-morpholino)ethanesulfonic acid, pH 5.2) at 37° C. overnight. After discarding the excess protein solution, each well was washed three times with 150 μL TBS-T buffer (25 mM Tris, 140 mM NaCl, 2.7 mM KCl, 0.01% Tween-20, pH 7.4). Then, 1 μL of compound (1% DMSO) was diluted into 24 μL of binding buffer (100 mM Tris, 20 mM KCl, 6 mM MgCl2, 0.01% Triton-X100) and incubated at room temperature for 30 min. Biotin labeled MKT-077 (final concentration 1 μM; 25 μL) was subsequently added into each well and the mixture was incubated at room temperature for another 3 hrs. The wells were washed with 150 μL TBS-T buffer three times prior to blocking with 100 μL 3% bovine serum albumin (BSA) in TBS-T buffer for 5 min at room temperature. After the removal of the BSA solution, 50 μL of HRP-streptavidin (Pierce Biotechnology, 1:50000 TBS-T dilution) solution was added and the plates were incubated at room temperature for 1 hr. The HRP-streptavidin solution was removed and wells were washed three times with 150 μL TBS-T. […] substrate (Cell Signaling Technology 100 μL) was added into each well and incubated at room temperature until a visible blue color was shown in wells (about 20 min). 1 M HCl stop solution was then added into each well to yield a yellow solution and the absorbance at 450 nm was recorded on SpectraMax M5 (Molecular Devices).

[1] = test system: human 4R0N tau in HeLaC3 cells; assay: Tau levels in HeLaC3 cells by Western blot; assay type: cell-based
Procedure: To determine whether YM-08 might also accelerated tau degradation, HeLaC3 cells, which stably over-express human 4R0N tau, were treated with compound. After 24 hours, the levels of phosphorylated (p396/404) tau and total tau were measured by Western blot. […] This cellular activity is not as dramatic as that of MKT-077, which reduced tau levels by >80% at 30 μM (FIG. 4D); however, reducing tau by only about 50% is predicted to provide benefits in some AD models.

T1 sequence (P11142 whole entry): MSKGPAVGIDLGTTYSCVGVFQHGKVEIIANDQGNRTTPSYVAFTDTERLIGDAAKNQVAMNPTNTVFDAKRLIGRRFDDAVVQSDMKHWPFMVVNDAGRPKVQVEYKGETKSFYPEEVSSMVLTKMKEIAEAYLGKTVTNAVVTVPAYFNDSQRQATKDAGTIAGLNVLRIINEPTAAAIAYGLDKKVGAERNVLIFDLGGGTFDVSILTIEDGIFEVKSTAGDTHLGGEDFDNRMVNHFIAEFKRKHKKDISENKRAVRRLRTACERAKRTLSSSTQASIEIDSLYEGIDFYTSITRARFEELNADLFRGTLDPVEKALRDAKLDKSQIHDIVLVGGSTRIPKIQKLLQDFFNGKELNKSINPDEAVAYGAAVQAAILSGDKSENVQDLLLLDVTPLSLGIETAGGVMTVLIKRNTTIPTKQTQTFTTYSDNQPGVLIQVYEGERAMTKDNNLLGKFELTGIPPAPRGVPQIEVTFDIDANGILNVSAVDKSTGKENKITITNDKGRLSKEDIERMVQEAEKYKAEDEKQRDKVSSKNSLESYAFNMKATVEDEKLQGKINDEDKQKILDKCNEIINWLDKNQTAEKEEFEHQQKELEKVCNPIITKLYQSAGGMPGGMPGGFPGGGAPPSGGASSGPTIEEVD

CCn1c(=O)/c(=C2\Sc3ccccc3N2C)s/c1=C\c1ccccn1 [YM-08, (2Z,5E)-3-ethyl-5-(3-methylbenzo[d]thiazol-2(3H)-ylidene)-2-(pyridin-2-ylmethylene)thiazolidin-4-one]
IC50 (human Hsc70 (HSPA8)): 610 ± 50 nM | anti-tau activity in cells [1]: reduced phospho (p396/404) and total tau | decrease of pS396/404 tau level ([1]; 30 μM, 24 hours): about 40% | decrease of total tau level ([1]; 30 μM, 24 hours): about 60%
